Test results published in patent publication US7193108B2, “Phenylpropionic acid derivatives” (Ajinomoto Co., Inc., priority 2001, dated 2007).
pIC50: −log10 of the molar value.

Biological target: T1, integrin α 4 β 7 (Homo sapiens, UniProt P13612+P26010)
T1 construct: lymphoma cell strain RPMI-8866 of human B cells, known to express integrin α 4 β 7; endogenous in cells; host or cells: RPMI-8866 (human B cell lymphoma line)
T1 sequence (P13612 34-1032): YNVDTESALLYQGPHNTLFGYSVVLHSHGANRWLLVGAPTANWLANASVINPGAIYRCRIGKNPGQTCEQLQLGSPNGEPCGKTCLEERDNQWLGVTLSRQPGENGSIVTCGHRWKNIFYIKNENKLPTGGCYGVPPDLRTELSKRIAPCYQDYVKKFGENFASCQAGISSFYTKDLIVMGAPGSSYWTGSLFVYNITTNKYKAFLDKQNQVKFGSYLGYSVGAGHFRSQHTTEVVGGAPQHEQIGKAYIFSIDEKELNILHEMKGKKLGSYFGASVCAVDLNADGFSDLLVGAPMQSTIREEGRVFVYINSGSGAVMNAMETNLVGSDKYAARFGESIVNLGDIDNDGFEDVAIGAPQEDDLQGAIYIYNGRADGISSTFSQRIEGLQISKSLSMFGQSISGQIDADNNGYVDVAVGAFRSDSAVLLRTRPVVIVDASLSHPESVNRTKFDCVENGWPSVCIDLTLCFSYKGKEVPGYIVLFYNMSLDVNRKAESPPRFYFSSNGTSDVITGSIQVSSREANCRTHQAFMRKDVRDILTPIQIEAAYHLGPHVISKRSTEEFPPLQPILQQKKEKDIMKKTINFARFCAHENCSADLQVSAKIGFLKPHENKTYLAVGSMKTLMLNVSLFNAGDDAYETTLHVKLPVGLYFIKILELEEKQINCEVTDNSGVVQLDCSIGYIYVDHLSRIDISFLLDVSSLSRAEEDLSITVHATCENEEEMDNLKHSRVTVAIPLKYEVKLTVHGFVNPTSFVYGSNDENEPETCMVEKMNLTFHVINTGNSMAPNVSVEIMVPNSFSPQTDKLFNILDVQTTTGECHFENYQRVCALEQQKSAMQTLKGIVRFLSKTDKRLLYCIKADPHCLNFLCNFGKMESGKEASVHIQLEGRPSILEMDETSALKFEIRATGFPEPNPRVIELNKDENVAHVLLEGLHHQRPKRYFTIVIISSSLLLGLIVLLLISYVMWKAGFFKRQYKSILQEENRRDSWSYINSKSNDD
T1 sequence (P26010 20-798): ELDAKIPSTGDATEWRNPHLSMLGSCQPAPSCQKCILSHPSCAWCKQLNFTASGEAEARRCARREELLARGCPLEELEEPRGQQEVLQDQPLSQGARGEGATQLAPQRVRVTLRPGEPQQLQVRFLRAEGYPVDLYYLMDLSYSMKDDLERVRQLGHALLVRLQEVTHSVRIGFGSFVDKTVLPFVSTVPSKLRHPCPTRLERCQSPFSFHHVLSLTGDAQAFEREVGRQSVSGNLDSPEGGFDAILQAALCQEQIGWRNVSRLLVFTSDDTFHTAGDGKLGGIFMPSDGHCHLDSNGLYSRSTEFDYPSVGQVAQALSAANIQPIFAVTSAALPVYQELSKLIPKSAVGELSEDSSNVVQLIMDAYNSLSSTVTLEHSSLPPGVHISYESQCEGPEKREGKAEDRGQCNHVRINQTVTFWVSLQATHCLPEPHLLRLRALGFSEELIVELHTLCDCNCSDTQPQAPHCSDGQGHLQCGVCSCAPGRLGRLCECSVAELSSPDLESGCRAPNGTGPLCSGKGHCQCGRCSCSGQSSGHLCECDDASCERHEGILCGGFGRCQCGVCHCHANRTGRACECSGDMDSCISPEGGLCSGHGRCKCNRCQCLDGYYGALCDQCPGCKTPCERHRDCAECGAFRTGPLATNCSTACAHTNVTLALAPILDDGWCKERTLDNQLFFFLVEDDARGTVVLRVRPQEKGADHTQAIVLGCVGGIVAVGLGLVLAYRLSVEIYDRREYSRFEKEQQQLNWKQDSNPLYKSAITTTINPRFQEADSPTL
Assay: VCAM antagonistic activity (VCAM-1/α 4 β 7 binding assay): binding of RPMI-8866 cells to VCAM-1
Assay type: cell-based
Conditions: fluorescent RPMI-8866 cells binding to recombinant human VCAM-1, 4 mM MnCl2, room temperature 30 minutes
Protocol: (Test Example) VCAM Antagonistic Activity (VCAM-1/α 4 β 7 Binding Assay)
The capacity of a test substance antagonistic to the binding of lymphoma cell strain RPMI-8866 of human B cells, known to express integrin α 4 β 7, to VCAM-1 was determined.
100 μl/well of a solution (500 ng/ml) of recombinant human VCAM-1 (R & D systems) solution diluted with buffer A (0.1 M NaHCO3, pH 9.6) was added to a micro titer plate having 96 wells (Nunc Maxisorp). After the incubation at 4° C. overnight, unbound VCAM-1 was removed by washing once with PBS. After completion of the washing, a buffer (buffer B) obtained by diluting Block Ace (Dainippon Pharmaceutical Co., Ltd.) with PBS to ¼ concentration was added in an amount of 150 μl/well. After the incubation at room temperature for 1 hour, buffer B was removed and the plate was washed with PBS once.
RPMI-8866 cells were incubated in Dulbecco modified Eagle medium containing 10 μg/ml of Calcein-AM (Wako Pure Chemical Industries, Ltd.) (SIGMA, hereinafter referred to as “DMEM”) at 37° C. for 30 minutes to label with fluorescence. The cells were again suspended in a binding buffer (20 mM HEPES, DMEM containing 0.1% BSA) containing 4 mM of MnCl2.
50 μl of a test substance of various concentrations obtained by the dilution with the binding buffer was added to the plate. Immediately thereafter, 50 μl (final volume: 100 μl/well) of the fluorescent RPMI-8866 cells (4×10^6 cells/ml) were added thereto, and they were incubated at room temperature for 30 minutes. After the shaking on a plate shaker (IKA MTS-4) at 800 rpm for 30 seconds, the solution was immediately removed to remove the unbound cells. The fluorescence quantity of the bound cells remaining in the wells was determined with a fluorescent plate reader (Wallac 1420 ARVO multi-label counter) (filter excitation wave length: 485 nm, emission wave length: 535 nm). The fluorescent strength thus obtained is proportional to the number of RPMI-8866 cells bound to VCAM-1 and remaining on the plate. The binding rate of each test material in various concentrations was determined while the fluorescent strength of the test material-free well was determined to be 100%. The concentration IC50 for the 50% binding inhibition was calculated.
The antagonistic activity is shown as A when IC50 is 0.8 μmol/L or less, B when IC50 is above 0.8 μmol/L and 4 μmol/L or less, C when IC50 is above 4 μmol/L and 20 μmol/L or less, and D when IC50 is above 20 μmol/L and 100 μmol/L or less.

| Compound | pIC50 |
| --- | --- |
| Cn1c(=O)n(-c2ccc(CC(CC(=O)c3ccccc3)C(=O)O)cc2)c(=O)c2ccccc21 (stereo not drawn) [Example 1, 4-phenyl-2-[4-(1-methyl-2,4-dioxo-1,2,3,4-tetrahydroquinazoline-3-yl)benzyl]-4-oxobutanoic acid] | 4.00 to 4.70 |
| Cn1c(=O)n(-c2ccc(/C=C(\CC(=O)c3c(Cl)cccc3Cl)C(=O)O)cc2)c(=O)c2ccccc21 [Example 5, (E)-2-[2-(2,6-dichlorophenyl)-2-oxoethyl]-3-[4-(1-methyl-2,4-dioxo-1,2,3,4-tetrahydroquinazoline-3-yl)phenyl]acrylic acid] | ≥ 6.10 |
| Cn1c(=O)n(-c2ccc(CC(CC(O)c3c(Cl)cccc3Cl)C(=O)O)cc2)c(=O)c2ccccc21 (stereo not drawn) [Example 7, 4-(2,6-dichlorophenyl)-4-hydroxy-2-[4-(1-methyl-2,4-dioxo-1,2,3,4-tetrahydroquinazoline-3-yl)benzyl]butanoic acid] | 4.00 to 4.70 |

Now from value to molecule:

| pIC50 | Compound |
| --- | --- |
| 4.00 to 4.70 | COC(=O)c1ccccc1NC(=O)Nc1ccc(CC(CC(=O)c2c(Cl)cccc2Cl)C(=O)O)cc1 (stereo not drawn) [Example 6, 4-(2,6-dichlorophenyl)-2-[4-[[(2-methoxycarbonylphenyl)amino]carbonylamino]benzyl]-4-oxobutanoic acid] |
| ≥ 6.10 | Cn1c(=O)n(-c2ccc(CC(CC(=O)c3c(Cl)cccc3Cl)C(=O)O)cc2)c(=O)c2ccccc21 (stereo not drawn) [Example 2, 4-(2,6-dichlorophenyl)-2-[4-(1-methyl-2,4-dioxo-1,2,3,4-tetrahydroquinazoline-3-yl)benzyl]-4-oxobutanoic acid] |
| 5.40 to 6.10 | Cn1c(=O)n(-c2ccc(CC(CC(=O)c3c(F)cccc3F)C(=O)O)cc2)c(=O)c2ccccc21 (stereo not drawn) [Example 3, 4-(2,6-difluorophenyl)-2-[4-(1-methyl-2,4-dioxo-1,2,3,4-tetrahydroquinazoline-3-yl)benzyl]-4-oxobutanoic acid] |
